In patent US4332794A, “6"-Deoxydibekacin, 4",6"-dideoxydibekacin and 1-N-aminoacyl derivatives thereof, and the production of these new compounds” (Zaidan Hojin Biseibutsu Kagaku Kenkyu Kai, priority 1979, dated 1982):
Values after ≈ are worked out from the molar mass of the structure shown.

What was measured:
[1] = system: Pseudomonas aeruginosa B-13; test: MIC, serial dilution on nutrient agar; type: cell-based; conditions: B13, nutrient agar, 37° C., 18 hours, read-out: MIC
Providencia Pv 16 = test: MIC, serial dilution on nutrient agar; type: cell-based; conditions: PV16, nutrient agar, 37° C., 18 hours, read-out: MIC
[2] = system: Klebsiella pneumoniae 22 #3038; test: MIC, serial dilution on nutrient agar; type: cell-based; conditions: nutrient agar, 37° C., 18 hours, read-out: MIC
intravenous LD50 in mice = conditions: mouse, in vivo, estimated
[3] = system: Pseudomonas aeruginosa H11; test: MIC, serial dilution on nutrient agar; type: cell-based; conditions: H11, 18 h
[4] = system: Corynebacterium bovis 1810; test: MIC, serial dilution on nutrient agar; type: cell-based; conditions: Corynebacterium bovis, 1810; nutrient agar, 37° C., 18 hours; read-out: MIC
[5] = system: Bacillus subtilis PCI 219; test: MIC, serial dilution on nutrient agar; type: cell-based; conditions: PCI219, 37° C., 18 hours
[6] = system: Escherichia coli K-12 R 388; test: MIC, serial dilution on nutrient agar; type: cell-based; conditions: K12R388, 18 h
Escherichia coli NIHJ = test: MIC, serial dilution on nutrient agar; type: cell-based; conditions: 18 h
Escherichia coli JR255 = test: microbe, parasite or virus in culture; type: cell-based; conditions: JR255, 18 h
[7] = system: Pseudomonas aeruginosa K-Ps102; test: MIC, serial dilution on nutrient agar; type: cell-based; conditions: KPS102, nutrient agar, 37° C., 18 hours, read-out: MIC
Escherichia coli W677 = test: MIC, serial dilution on nutrient agar; type: cell-based; conditions: W677, 18 h
[8] = system: Pseudomonas aeruginosa No. 12; test: MIC, serial dilution on nutrient agar; type: cell-based; conditions: NO.12, nutrient agar, 37° C., 18 hours, read-out: MIC
[9] = system: Pseudomonas aeruginosa H9; test: MIC, serial dilution on nutrient agar; type: cell-based; conditions: H9, 18 h
[10] = system: Escherichia coli K-12 LA 290 R55; test: microbe, parasite or virus in culture; type: cell-based; conditions: K12LA290R55, 18 h
[11] = system: Pseudomonas aeruginosa PST1; test: MIC, serial dilution on nutrient agar; type: cell-based; conditions: PST1, 18 h
[12] = system: Mycrococcus flavus FDA 16; test: MIC, serial dilution on nutrient agar; type: cell-based; conditions: 18 h
Escherichia coli K-12 R5 = test: microbe, parasite or virus in culture; type: cell-based; conditions: K12R5, 18 h
[13] = system: Bacillus cereus ATCC 10702; test: MIC, serial dilution on nutrient agar; type: cell-based; conditions: ATCC10702, nutrient agar, 37° C., 18 hours, read-out: MIC
[14] = system: Pseudomonas aeruginosa 99; test: MIC, serial dilution on nutrient agar; type: cell-based; conditions: Pseudomonas aeruginosa, 99; nutrient agar, 37° C., 18 hours; read-out: MIC
[15] = system: Pseudomonas aeruginosa TI-13; test: MIC, serial dilution on nutrient agar; type: cell-based; conditions: TI13, 18 h
Escherichia coli K-12 = test: MIC, serial dilution on nutrient agar; type: cell-based; conditions: K12, 18 h
Bacillus anthracis = test: microbe, parasite or virus in culture; type: cell-based; conditions: 18 h
[16] = system: Escherichia coli K-12 1410 R81; test: MIC, serial dilution on nutrient agar; type: cell-based; conditions: K121410R81, 18 h
[17] = system: Escherichia coli K-12 LA 290 R56; test: microbe, parasite or virus in culture; type: cell-based; conditions: K12LA290R56, 18 h
[18] = system: Bacillus subtilis NRRL B-558; test: MIC, serial dilution on nutrient agar; type: cell-based; conditions: NRRLB558, 37° C., 18 hours
[19] = system: Salmonella enteritidis 1891; test: MIC, serial dilution on nutrient agar; type: cell-based; conditions: Salmonella enterica, nutrient agar, 37° C., 18 hours, read-out: MIC
[20] = system: Escherichia coli K-12 ML 1410; test: MIC, serial dilution on nutrient agar; type: cell-based; conditions: K12ML1410, nutrient agar, 37° C., 18 hours, read-out: MIC
Sarcina lutea PCI 1001 = test: MIC, serial dilution on nutrient agar; type: cell-based; conditions: Micrococcus luteus, PCI1001; nutrient agar, 37° C., 18 hours; read-out: MIC
Proteus rettgeri GN311 = test: MIC, serial dilution on nutrient agar; type: cell-based; conditions: Providencia rettgeri, GN311, 18 h
[21] = system: Staphylococcus aureus APO1; test: MIC, serial dilution on nutrient agar; type: cell-based; conditions: APO1, 18 h
[22] = system: Shigella dysenteriae JS11910; test: MIC, serial dilution on nutrient agar; type: cell-based; conditions: JS11910, 18 h
[23] = system: Escherichia coli K-12 LA 290 R64; test: MIC, serial dilution on nutrient agar; type: cell-based; conditions: K12LA290R64, 18 h
[24] = system: Pseudomonas aeruginosa ROS134/PU21; test: microbe, parasite or virus in culture; type: cell-based; conditions: ROS134/PU21, 18 h
oto-toxicity = conditions: compounds of this invention
[25] = system: Pseudomonas aeruginosa A3; test: MIC, serial dilution on nutrient agar; type: cell-based; conditions: A3, nutrient agar, 37° C., 18 hours, read-out: MIC
[26] = system: Staphylococcus aureus Smith; test: MIC, serial dilution on nutrient agar; type: cell-based; conditions: 37° C., 18 hours
[27] = system: Mycobacterium smegmatis ATCC 607; test: MIC, serial dilution on nutrient agar; type: cell-based; conditions: Mycolicibacterium smegmatis, ATCC607, 18 h
[28] = system: Staphylococcus epidermidis 109; test: MIC, serial dilution on nutrient agar; type: cell-based; conditions: Staphylococcus epidermidis, 109, 18 h
[29] = system: Escherichia coli JR66/W677; test: MIC, serial dilution on nutrient agar; type: cell-based; conditions: JR66/W677, nutrient agar, 37° C., 18 hours, read-out: MIC

Work on `C[C@H]1O[C@H](O[C@@H]2[C@@H](O)[C@H](O[C@H]3O[C@H](CN)CC[C@H]3N)[C@@H](N)C[C@H]2NC(=O)[C@@H](O)CCN)[C@H](O)[C@@H](N)[C@@H]1O` [AHB-6"-DDKB, 1-N-(L-4-amino-2-hydroxybutyryl)-6"-deoxydibekacin] yielded an MIC [1] of 25 mg/L (≈ 46.6 µM), an MIC (Providencia Pv 16) of 25 mg/L (≈ 46.6 µM) and an MIC [2] of 3.13 mg/L (≈ 5.83 µM). For the same compound, the LD50 (intravenous LD50 in mice) was greater than 80 mg/kg, the MIC [3] was 50 mg/L (≈ 93.2 µM) and the MIC [4] was 3.13 mg/L (≈ 5.83 µM). For the same compound, the MIC [5] was less than 0.2 mg/L, the MIC [6] was 0.78 mg/L (≈ 1.45 µM) and the MIC (Escherichia coli NIHJ) was 1.56 mg/L (≈ 2.91 µM). The MIC (Escherichia coli JR255) was 1.56 mg/L (≈ 2.91 µM), the MIC [7] was 12.5 mg/L (≈ 23.3 µM) and the MIC (Escherichia coli W677) was 1.56 mg/L (≈ 2.91 µM). For the same compound, the MIC [8] was 25 mg/L (≈ 46.6 µM), the MIC [9] was 6.25 mg/L (≈ 11.6 µM) and the MIC [10] was 3.13 mg/L (≈ 5.83 µM). The MIC [11] was 50 mg/L (≈ 93.2 µM), the MIC [12] was 1.56 mg/L (≈ 2.91 µM) and the MIC (Escherichia coli K-12 R5) was 50 mg/L (≈ 93.2 µM). The MIC [13] was 3.13 mg/L (≈ 5.83 µM), the MIC [14] was 12.5 mg/L (≈ 23.3 µM) and the MIC [15] was 6.25 mg/L (≈ 11.6 µM). It also gave an MIC (Escherichia coli K-12) of 1.56 mg/L (≈ 2.91 µM), an MIC (Bacillus anthracis) of 0.2 mg/L (≈ 0.373 µM) and an MIC [16] of 1.56 mg/L (≈ 2.91 µM). The MIC [17] was 1.56 mg/L (≈ 2.91 µM), the MIC [18] was less than 0.2 mg/L and the MIC [19] was 3.13 mg/L (≈ 5.83 µM). For the same compound, the MIC [20] was 3.13 mg/L (≈ 5.83 µM), the MIC (Sarcina lutea PCI 1001) was 3.13 mg/L (≈ 5.83 µM) and the MIC (Proteus rettgeri GN311) was 50 mg/L (≈ 93.2 µM). It also gave an MIC [21] of 1.56 mg/L (≈ 2.91 µM), an MIC [22] of 6.25 mg/L (≈ 11.6 µM) and an MIC [23] of 1.56 mg/L (≈ 2.91 µM). The MIC [24] was greater than 100 mg/L, the oto-toxicity (oto-toxicity) was “low oto-toxicity” and the MIC [25] was 3.13 mg/L (≈ 5.83 µM). The MIC [26] was less than 0.2 mg/L, the MIC [27] was 0.39 mg/L (≈ 0.727 µM) and the MIC [28] was 1.56 mg/L (≈ 2.91 µM). The MIC [29] was 3.13 mg/L (≈ 5.83 µM).
